Source: patent US7320984B2, “Remedies or preventives for urinary frequency or urinary incontinence and morphinan derivatives having nitrogen-containing heterocyclic group” (Toray Industries, Inc., priority 2002, dated 2008)

Test system: rhythmic bladder contractions in rats
Assay: Inhibitory effect against rhythmic bladder contractions in rats
Format: in vivo
Details: anesthetized female SD rats, intravenous
Experimental: Inhibitory Effect Against Rhythmic Bladder Contractions in Rats
Female SD rats were anesthetized with an intraperitoneal administration of urethane (1.0 g/kg). A polyethylene tube was inserted from the urethra to the bladder and the tube was fixed by ligation. Then physiological saline was appropriately infused (infusion rate: about 0.2 ml/min., maximum: about 1.5 ml/animal) through the tube to cause rhythmic bladder contractions. The rhythmic bladder contractions were monitored by measuring the intravesical pressure through a polyethylene tube inserted into the bladder. After confirming that stable rhythmic bladder contractions occurred at least 10 times, a vehicle containing a prescribed dose of a test compound was intravenously administration at a dose of 1 ml/kg. In cases where the intravesical pressure, within 10 minutes after the administration of the test compound, decreased to 50% or less of the intravesical pressure immediately […] the administration, the test compound was judged as having inhibitory effect against urinary bladder contractions, and the time period until the intravesical pressure returned to more than 50% was defined as inhibitory time of rhythmic bladder contractions. As the vehicle for administration, physiological saline was used for test compounds 4, 7, 8, 9, 10, 13, 29, 30, 31, 33, 34, 75, 76, 79, 80, 81, 82, 84, 89, 90, 91, 93, 94, 95, 110 and 111, aqueous 10% dimethylsulfoxide (DMSO) solution was used for test compounds 11, 12, 14, 15, 16, 17, 18, 20, 21, 23, 28, 46, 47, 50, 55, 56, 57, 58, 59, 60, 61, 62, 63, 64, 65, 66, 68, 69, 70, 71, 72, 73, 74, 77, 78, 83, 85, 86, 87, 88, 92, 96, 97, 98, 99, 100, […], 103, 104, 105, 106, 107, 108 and […], aqueous 20% dimethylsulfoxide (DMSO) solution was used for test compounds 1, 2, 67 and 101, and aqueous 5% xylitol solution was used for test compounds 5 and 35. The aqueous 10% DMSO solution, aqueous 20% DMSO solution and the aqueous 5% xylitol solution per se, which may influence on the inhibitory time of rhythmic bladder contractions, were also tested at a dose of 1 ml/kg. With any of the compounds, prolongation of the inhibitory time of rhythmic bladder contractions was observed when compared with that obtained in the group to which the vehicle alone was administered.

O=C1c2cccc(F)c2C(=O)N1[C@H]1CC[C@@]2(O)[C@H]3Cc4ccc(O)c5c4[C@@]2(CCN3CC2CC2)[C@H]1O5 [Compound 67, N-(17-cyclopropylmethyl-4,5α-epoxy-3,14-dihydroxymorphinan-6α-yl)-3-fluorophthalimide]
Mean Inhibitory Time of Rhythmic Bladder Contractions (dose 0.003 mg/kg body weight): 27.3 min

Cc1ccc2c(c1)C(=O)N([C@@H]1CC[C@@]3(O)[C@H]4Cc5ccc(O)c6c5[C@@]3(CCN4CC3CC3)[C@H]1O6)C2=O [Compound 12, N-(17-cyclopropylmethyl-4,5α-epoxy-3,14-dihydroxy-morphinan-6β-yl)-4-methylphthalimide]
Mean Inhibitory Time of Rhythmic Bladder Contractions (dose 0.03 mg/kg body weight): 16.5 min

CCN(CC)C(=O)[C@@H]1CCCN1[C@H]1CC[C@H]2[C@H]3Cc4ccc(O)c5c4[C@@]2(CCN3C)[C@H]1O5 [Compound 31, 1-(4,5α-epoxy-3-hydroxy-17-methyl-morphinan-6α-yl)-pyrrolidin-(2S)-carboxyl diethylamide]
Mean Inhibitory Time of Rhythmic Bladder Contractions (dose 1.0 mg/kg body weight): 1.0 min

O=C1c2ccccc2C(=O)N1[C@@H]1CC[C@@]2(O)[C@H]3Cc4ccc(O)c5c4[C@@]2(CCN3)[C@H]1O5 [Compound 14, N-(4,5α-epoxy-3,14-dihydroxy-morphinan-6β-yl)-phthalimide]
Mean Inhibitory Time of Rhythmic Bladder Contractions (dose 1.0 mg/kg body weight): 7.9 min

O=C1CCCN1[C@H]1CC[C@@]2(O)[C@H]3Cc4ccc(O)c5c4[C@@]2(CCN3CC2CC2)[C@H]1O5 [Compound 34, 1-(17-cyclopropylmethyl-4,5α-epoxy-3,14-dihydroxy-morphinan-6α-yl)-pyrrolidin-2-one]
Mean Inhibitory Time of Rhythmic Bladder Contractions (dose 1.0 mg/kg body weight): 9.2 min

C=CCN1CC[C@]23c4c5ccc(O)c4O[C@H]2[C@@H](N2C(=O)c4ccc(F)cc4C2=O)CC[C@@]3(O)[C@H]1C5 [Compound 65, N-(17-allyl-4,5α-epoxy-3,14-dihydroxymorphinan-6α-yl)-4-fluorophthalimide]
Mean Inhibitory Time of Rhythmic Bladder Contractions (dose 0.01 mg/kg body weight): 18.6 min

O=C1c2cc(Cl)c(Cl)cc2C(=O)N1[C@@H]1CC[C@@]2(O)[C@H]3Cc4ccc(O)c5c4[C@@]2(CCN3CC2CC2)[C@H]1O5 [Compound 55, N-[17-(cyclopropylmethyl)-4,5α-epoxy-3,14-dihydroxymorphinan-6β-yl]-4,5-dichlorophthaimide]
Mean Inhibitory Time of Rhythmic Bladder Contractions (dose 0.1 mg/kg body weight): 15.0 min

O=C1C/C(=C\c2ccccc2)C(=O)N1[C@@H]1CC[C@@]2(O)[C@H]3Cc4ccc(O)c5c4[C@@]2(CCN3CC2CC2)[C@H]1O5 [Compound 21, N-(17-cyclopropylmethyl-4,5α-epoxy-3,14-dihydroxy-morphinan-6β-yl)-2-benzylidene-succinimide]
Mean Inhibitory Time of Rhythmic Bladder Contractions (dose 1.0 mg/kg body weight): 19.0 min

O=C1c2cccnc2C(=O)N1[C@@H]1CC[C@@]2(O)[C@H]3Cc4ccc(O)c5c4[C@@]2(CCN3CC2CC2)[C@H]1O5 [Compound 80, N-(17-cyclopropylmethyl-4,5α-epoxy-3,14-dihydroxy-morphinan-6β-yl)-2,3-pyridinedicarboimide]
Mean Inhibitory Time of Rhythmic Bladder Contractions (dose 0.1 mg/kg body weight): 1.1 min

CCCN1CC[C@]23c4c5ccc(O)c4O[C@H]2[C@H](N2C(=O)c4cccc(N)c4C2=O)CC[C@@]3(O)[C@H]1C5 [Compound 101, N-(4,5α-epoxy-3,14-dihydroxy-17-propyl-morphinan-6β-yl)-3-amino-phthalimide]
Mean Inhibitory Time of Rhythmic Bladder Contractions (dose 0.3 mg/kg body weight): 15.1 min

C=CCN1CC[C@]23c4c5ccc(O)c4O[C@H]2[C@@H](N2C(=O)C4=C(CCCC4)C2=O)CC[C@@]3(O)[C@H]1C5 [Compound 74, N-(17-allyl-4,5α-epoxy-3,14-dihydroxymorphinan-6α-yl)-3,4,5,6-tetrahydrophthalimide]
Mean Inhibitory Time of Rhythmic Bladder Contractions (dose 0.03 mg/kg body weight): 24.0 min

O=C1CCC(=O)N1[C@@H]1CC[C@@]2(O)[C@H]3Cc4ccc(O)c5c4[C@@]2(CCN3CC2CC2)[C@H]1O5 [Compound 20, N-(17-cyclopropylmethyl-4,5α-epoxy-3,14-dihydroxy-morphinan-6β-yl)-succinimide]
Mean Inhibitory Time of Rhythmic Bladder Contractions (dose 1.0 mg/kg body weight): 18.1 min

O=C1[C@H]2C[C@H]2C(=O)N1[C@@H]1CC[C@@]2(O)[C@H]3Cc4ccc(O)c5c4[C@@]2(CCN3CC2CC2)[C@H]1O5 [Compound 79, N-(17-cyclopropylmethyl-4,5α-epoxy-3,14-dihydroxy-morphinan-6β-yl)-1,2-cyclopropanedicarboimide]
Mean Inhibitory Time of Rhythmic Bladder Contractions (dose 0.1 mg/kg body weight): 2.1 min

O=C1c2cccc(F)c2C(=O)N1[C@@H]1CC[C@@]2(O)[C@H]3Cc4ccc(O)c5c4[C@@]2(CCN3CC2CC2)[C@H]1O5 [Compound 17, N-(17-cyclopropylmethyl-4,5α-epoxy-3,14-dihydroxy-morphinan-6β-yl)-3-fluorophthalimide]
Mean Inhibitory Time of Rhythmic Bladder Contractions (dose 0.005 mg/kg body weight): 13.2 min

C=CCN1CC[C@]23c4c5ccc(O)c4O[C@H]2[C@@H](N2C(=O)c4cccc(C)c4C2=O)CC[C@@]3(O)[C@H]1C5 [Compound 61, N-(17-allyl-4,5α-epoxy-3,14-dihydroxymorphinan-6α-yl)-3-methylphthalimide]
Mean Inhibitory Time of Rhythmic Bladder Contractions (dose 0.03 mg/kg body weight): 22.6 min

C=CCN1CC[C@]23c4c5ccc(O)c4O[C@H]2[C@H](N2Cc4ccccc4C2=O)CC[C@@]3(O)[C@H]1C5 [Compound 86, 2-(17-allyl-4,5α-epoxy-3,14-dihydroxy-morphinan-6β-yl)-2,3-dihydro-isoindol-1-one]
Mean Inhibitory Time of Rhythmic Bladder Contractions (dose 0.1 mg/kg body weight): 12.1 min

CN1CC[C@]23c4c5ccc(O)c4O[C@H]2[C@H](N2CC(=O)Nc4ccccc42)CC[C@@]3(O)[C@H]1C5 [Compound 7, 4-(4,5α-epoxy-3,14-dihydroxy-17-methyl-morphinan-6β-yl)-3,4-dihydro-1H-quinoxalino-2-one]
Mean Inhibitory Time of Rhythmic Bladder Contractions (dose 1.0 mg/kg body weight): 3.8 min

O=C1c2cccc(F)c2CN1[C@@H]1CC[C@@]2(O)[C@H]3Cc4ccc(O)c5c4[C@@]2(CCN3CC2CC2)[C@H]1O5 [Compound 81, 2-(17-cyclopropylmethyl-4,5α-epoxy-3,14-dihydroxy-morphinan-6β-yl)-4-fluoro-2,3-dihydro-isoindol-1-one]
Mean Inhibitory Time of Rhythmic Bladder Contractions (dose 0.03 mg/kg body weight): 16.1 min

C=CCN1CC[C@]23c4c5ccc(O)c4O[C@H]2[C@H](N2C(=O)c4ccc(N)cc4C2=O)CC[C@@]3(O)[C@H]1C5 [Compound 99, N-(17-allyl-4,5α-epoxy-3,14-dihydroxy-morphinan-6β-yl)-4-amino-phthalimide]
Mean Inhibitory Time of Rhythmic Bladder Contractions (dose 0.1 mg/kg body weight): 16.9 min

CCN(CC)C(=O)[C@H]1CCCN1[C@@H]1CC[C@@]2(O)[C@H]3Cc4ccc(O)c5c4[C@@]2(CCN3C)[C@H]1O5 [Compound 30, 1-(4,5α-epoxy-3,14-dihydroxy-17-methyl-morphinan-6β-yl)-pyrrolidin-(2R)-carboxyl diethylamide]
Mean Inhibitory Time of Rhythmic Bladder Contractions (dose 3.0 mg/kg body weight): 2.3 min

C=CCN1CC[C@]23c4c5ccc(O)c4O[C@H]2[C@H](N2C(=O)c4ccccc4C2=O)CC[C@@]3(OC(C)=O)[C@H]1C5 [Compound 92, N-(14-acetoxy-17-allyl-4,5α-epoxy-3-hydroxymorphinan-6β-yl)-phthalimide]
Mean Inhibitory Time of Rhythmic Bladder Contractions (dose 0.1 mg/kg body weight): 16.0 min

O=C1C2=C(CCCC2)CN1[C@@H]1CC[C@@]2(O)[C@H]3Cc4ccc(O)c5c4[C@@]2(CCN3CC2CC2)[C@H]1O5 [Compound 83, 2-(17-cyclopropylmethyl-4,5α-epoxy-3,14-dihydroxy-morphinan-6β-yl)-2,3,4,5,6,7-hexahydro-isoindol-1-one]
Mean Inhibitory Time of Rhythmic Bladder Contractions (dose 0.1 mg/kg body weight): 10.6 min
